Measured values taken from patent publication US5854039A, “Transformation of pichia methanolica” (ZymoGenetics, Inc., priority 1997, dated 1998).

System: P. methanolica cells (strain CBS6515), UV-mutagenized
Assay: Nystatin enrichment for auxotrophic mutants, titering for colony forming units
Type: cell-based, Pichia methanolica
Details: 1 mg nystatin added to remainder of 500 ml culture in minimal broth, one additional hour with shaking, nystatin-treated versus control cells
Experimental: Large-scale mutagenesis was then carried out using a 2-second UV exposure to provide about 20% killing. Cells were plated at approximately 10^4 cells/plate onto eight YEPD plates that were supplemented with 100 mg/L each of uracil, adenine, and leucine, which were added to supplement the growth of potential auxotrophs having the cognate deficiencies. Following UV exposure the plates were wrapped in foil and incubated overnight at 30° C. The following day the colonies on the plates (~10^5 total) were resuspended in water and washed once with water. An amount of cell suspension sufficient to give an OD600 of 0.1-0.2 was used to inoculate 500 ml of minimal broth made with yeast nitrogen base without amino acids or ammonia, supplemented with 1% glucose and 400 μg/L biotin. The culture was placed in a 2.8 L baffled Bell flask and shaken vigorously overnight at 30° C. The following day the cells had reached an OD600 of ~1.0-2.0. The cells were pelleted and resuspended in 500 ml of minimal broth supplemented with 5 g/L ammonium sulfate. The cell suspension was placed in a 2.8 L baffled Bell flask and shaken vigorously at 30° C. for 6 hours. 50 ml of the culture was set aside in a 250-ml flask as a control, and to the remainder of the culture was added 1 mg nystatin to select for auxotrophic mutants (Snow, Nature 211:206-207, 1966). […]

**Q.** For `C[C@@H]1[C@H](O)[C@@H](C)/C=C/C=C/CC/C=C/C=C/C=C/C=C/C(O[C@H]2O[C@H](C)[C@@H](O)[C@H](N)[C@@H]2O)CC2O[C@](O)(CC(O)C(O)CCC(O)CC(O)CC(O)CC(=O)O[C@H]1C)CC(O)C2C(=O)O` (stereo partly shown) [nystatin], which “decrease in the number of viable cells (factor)” value is on record?
**A.** 10^4
